We go through one compound from patent US6541638B2, “Pyrrolidine derivatives” (Hoffman-La Roche Inc., priority 2000, dated 2003).

SMILES strings stand for the structures.

In general, melting point refers to the temperature of the solid-liquid transition. For `O=C([C@@H]1C[C@@H](S)CN1S(=O)(=O)c1ccc2ccccc2c1)N(CCc1nnn[nH]1)C1CC1`, the melting point is 173.5 °C (dec.).
